Experimental data as given in ChEMBL document CHEMBL5674886, “GLUT4 expression and glucose transport in human induced pluripotent stem cell-derived cardiomyocytes” (PLoS One, 2019).

Legend:
Format in all cases: cell-based
[1] = molecular target: T1, Solute carrier family 2, facilitated glucose transporter member 1 (Mus musculus) (UniProt P17809); assay: Inhibition of GLUT1 in mouse 3T3-L1 cells assessed as reduction in insulin-stimulated [3H]-2-deoxyglucose uptake at 2 uM incubated for 30 mins by [3H]-2-deoxyglucose uptake assay
T1 sequence (whole entry): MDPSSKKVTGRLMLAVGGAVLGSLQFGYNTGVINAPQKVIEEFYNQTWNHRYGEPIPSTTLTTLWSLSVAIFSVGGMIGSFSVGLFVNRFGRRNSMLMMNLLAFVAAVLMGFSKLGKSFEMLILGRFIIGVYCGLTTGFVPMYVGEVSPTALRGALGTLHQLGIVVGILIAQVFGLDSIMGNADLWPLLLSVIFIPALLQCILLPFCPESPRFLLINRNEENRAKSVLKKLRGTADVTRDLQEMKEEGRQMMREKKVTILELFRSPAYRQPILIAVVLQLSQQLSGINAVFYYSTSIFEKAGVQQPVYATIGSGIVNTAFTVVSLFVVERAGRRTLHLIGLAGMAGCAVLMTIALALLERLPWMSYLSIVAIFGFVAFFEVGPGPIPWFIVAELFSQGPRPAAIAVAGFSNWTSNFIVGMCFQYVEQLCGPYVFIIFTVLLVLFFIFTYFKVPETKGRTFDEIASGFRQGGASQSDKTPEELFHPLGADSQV

[2] = molecular target: T2, Solute carrier family 2, facilitated glucose transporter member 4 (Homo sapiens, UniProt P14672); assay: Inhibition of human GLUT4 expressed in CHO cells measured after 15 mins by cell-titer-Glo luminescent cell viability assay
T2 sequence (P14672 whole entry): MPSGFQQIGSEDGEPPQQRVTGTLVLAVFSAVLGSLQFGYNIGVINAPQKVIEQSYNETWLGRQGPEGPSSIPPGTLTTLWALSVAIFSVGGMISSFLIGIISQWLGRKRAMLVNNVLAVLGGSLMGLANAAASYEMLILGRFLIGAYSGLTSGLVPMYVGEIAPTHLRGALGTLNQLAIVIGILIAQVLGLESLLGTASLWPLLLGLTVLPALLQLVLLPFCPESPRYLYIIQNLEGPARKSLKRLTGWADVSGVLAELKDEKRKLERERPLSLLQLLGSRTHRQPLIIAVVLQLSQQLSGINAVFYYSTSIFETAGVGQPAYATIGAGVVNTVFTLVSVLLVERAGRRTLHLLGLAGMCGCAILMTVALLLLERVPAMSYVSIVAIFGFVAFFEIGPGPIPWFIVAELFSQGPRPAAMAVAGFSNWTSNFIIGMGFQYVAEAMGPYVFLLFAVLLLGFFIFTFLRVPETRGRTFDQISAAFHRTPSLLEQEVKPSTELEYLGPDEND

[3] = molecular target: T1, Solute carrier family 2, facilitated glucose transporter member 1 (Mus musculus); assay: Inhibition of GLUT1 in mouse 3T3-L1 cells assessed as reduction in insulin-stimulated [3H]-2-deoxyglucose uptake at 20 nM incubated for 30 mins by [3H]-2-deoxyglucose uptake assay

Compound: Cc1c(NC(=O)c2cc(C(N)=O)nc3cc(F)ccc23)c(C(F)(F)F)nn1Cc1ccc(C#N)cc1 [BAY-876]
- inhibition [1]: 100%
- IC50 [2]: 0.2 µM
- inhibition [3]: 25%
